Literature values, collected in US20250352504A1, “LEVOCARNITINE AND TRIMETAZIDINE BILAYER TABLET AND PREPARATION METHOD THEREOF” (Changzhou High-tech Industrial Development Zone 3D …, priority 2024, published 2025).
Counter-ions that a name gives are not always drawn. Like-named read-outs stand apart in the source and are kept apart here.

Key:
[1] = crystalline powder

| hygroscopicity [1] | solubility (acetone) | solubility (formic acid) | SMILES | solubility (ethanol) | solubility (ether) | solubility (water) | solubility (0.1 mol/L hydrochloric acid solution) | solubility (0.1 mol/L sodium hydroxide solution) | solubility (acetic acid) | solubility (methanol) |
| --- | --- | --- | --- | --- | --- | --- | --- | --- | --- | --- |
| strong hygroscopicity | almost insoluble | easily soluble | C[N+](C)(C)C[C@H](O)CC(=O)[O-] [Levocarnitine, (3R)-3-hydroxy-4-(trimethylammonio) butanoate] | readily soluble | almost insoluble | readily soluble |  |  |  |  |
|  |  |  | COc1ccc(CN2CCNCC2)c(OC)c1OC [Trimetazidine dihydrochloride, 1-(2,3,4-Trimethoxybenzyl) piperazine dihydrochloride] | slightly soluble | almost insoluble | highly soluble | highly soluble | highly soluble | easily soluble | soluble |
